Source: US11180461B2, “Triazoles as Kv3 inhibitors” (AUTIFONY THERAPEUTICS LIMITED, priority 2012, dated 2021)

Biological target: T1, human Kv3.3 channels (hKv3.3) (Homo sapiens, UniProt Q14003)
T1 construct: expressed in transfected cells
T1 sequence (Q14003 1-757): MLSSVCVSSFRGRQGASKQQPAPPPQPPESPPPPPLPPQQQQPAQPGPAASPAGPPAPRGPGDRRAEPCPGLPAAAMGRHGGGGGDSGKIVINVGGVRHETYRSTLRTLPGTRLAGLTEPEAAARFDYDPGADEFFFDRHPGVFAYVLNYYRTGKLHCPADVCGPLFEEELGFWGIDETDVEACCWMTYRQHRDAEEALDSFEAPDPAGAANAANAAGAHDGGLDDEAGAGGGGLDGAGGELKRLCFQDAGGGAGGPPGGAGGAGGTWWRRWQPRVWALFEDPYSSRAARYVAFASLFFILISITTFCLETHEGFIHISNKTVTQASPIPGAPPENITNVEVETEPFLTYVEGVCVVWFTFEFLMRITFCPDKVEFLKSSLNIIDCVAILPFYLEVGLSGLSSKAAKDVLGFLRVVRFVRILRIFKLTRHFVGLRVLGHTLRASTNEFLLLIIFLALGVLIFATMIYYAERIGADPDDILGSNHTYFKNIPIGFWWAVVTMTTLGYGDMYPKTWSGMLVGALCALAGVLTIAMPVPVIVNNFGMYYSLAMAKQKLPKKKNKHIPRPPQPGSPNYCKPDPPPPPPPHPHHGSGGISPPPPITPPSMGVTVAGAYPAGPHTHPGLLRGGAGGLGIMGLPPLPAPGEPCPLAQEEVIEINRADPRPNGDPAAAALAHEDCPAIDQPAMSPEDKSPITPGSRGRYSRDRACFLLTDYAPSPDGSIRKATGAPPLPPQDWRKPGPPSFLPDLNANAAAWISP
Assay: hKv3.3 recombinant cell assay, IonWorks Quattro planar array electrophysiology
Assay type: cell-based
Conditions: 12.5 micromolar; mean, n=2
Excerpt: The ability of the compounds of the invention to modulate the voltage-gated potassium channel subtypes Kv3.2/3.1 may be determined using the following assay. The assay may also be used to determine the ability of compounds of the invention to modulate the voltage-gated potassium channel Kv3.3. Analogous methods may be used to investigate the ability of the compounds of the invention to modulate other channel subtypes.
To assess compound effects on human Kv3.3 channels (hKv3.3), a stable cell line expressing human Kv3.3 channels was created by transfecting Chinese Hamster Ovary (CHO)—K1 cells with a pBacMire_KCNC-3 vector. Cells were cultured in DMEM/F12 (Gibco) supplemented with 10% Foetal Bovine Serum (Gibco), 1× non-essential amino acids (Invitrogen) and geneticin (G418) 400 microg/mL. Cells were grown and maintained at 37° C. in a humidified environment containing 5% CO2 in air. […]
Experiments were conducted at room temperature using IonWorks Quattro™ planar array electrophysiology technology (Molecular Devices Corp.) with PatchPlate™ PPC. […] Planar electrode hole resistances (Rp) were determined by applying a 10 mV voltage step across each well. […] Test pulses protocol may be performed in the absence (pre-read) and presence (post-read) of the test compound. Pre- and post-reads may be separated by the compound addition followed by a 3 minute incubation. […]

SMILES: Cc1ccc(Oc2ccc(-n3c(C)n[nH]c3=O)cn2)c2c1OCC21CC1 [Example 14, 5-methyl-4-{6-[(7-methylspiro[1-benzofuran-3,1′-cyclopropan]-4-yl)oxy]pyridin-3-yl}-2,4-dihydro-3H-1,2,4-triazol-3-one]
- increase in human Kv3.3 peak current at 0 mV: 75%
